Laboratory results reported in patent publication US20250287987A1, “AEROSOLISABLE MATERIAL” (NICOVENTURES TRADING LIMITED, priority 2022, published 2025).

Experiment: physchem
Description: LogP is the partition coefficient of a molecule between aqueous and lipophilic phases, usually considered as octanol and water. As referred to herein, the LogP of specific terpenes can be determined using the “slow-stirring” method, wherein water, 1-octanol and the test substance are equilibrated in a thermostated stirred reactor. Exchange between the phases is accelerated by stirring. The stirring introduces limited turbulence which enhances the exchange between 1-octanol and water without microdroplets being formed. A suitable “slow-stirring” method is: Test No. 123: Partition Coefficient (1-Octanol/Water): Slow-Stirring Method, 30 Jun. 2022, OECD Guidelines for the Testing of Chemicals.

Row | SMILES | logP (LogP) | also measured
1 | CC(C)=CCCC(C)CCO (stereo not drawn) [Beta-citronellol] | 3.56 | –
2 | C=C(C)[C@H]1CC=C(C)CC1 [Limonene] | – | logP (octanol/water): 4.4
3 | C=CC(C)(CCC=C(C)C)OC(C)=O (stereo not shown) [Linalyl acetate] | – | logP: 3.92
4 | C=C1CC/C=C(\C)CC[C@@H]2[C@@H]1CC2(C)C [beta-caryophyllene] | > 6.4 | –
